Results: paper PMC5218480 (PLoS ONE, 2017)

Test system: MV-4-11 cells
Experiment: Gene expression microarray analysis (Affymetrix PrimeView) and GSEA
Type: cell-based, human
Parameters: RFU PODN (11730768_x_at) / Fold change /veh PODN (11730768_x_at) / RFU LINC00158 (11744669_a_at) / Fold change /veh LINC00158 (11744669_a_at) / RFU DUSP10 (11751237_a_at) / Fold change /veh DUSP10 (11751237_a_at) / RFU ID3 (11757404_x_at) / Fold change /veh ID3 (11757404_x_at) / RFU PLEKHG5 (11737974_s_at) / Fold change /veh PLEKHG5 (11737974_s_at) / RFU LRRC4B (11730491_at) / Fold change /veh LRRC4B (11730491_at) / RFU GIMAP4 (11747438_a_at) / Fold change /veh GIMAP4 (11747438_a_at) / RFU KRT8 (11758183_x_at) / Fold change /veh KRT8 (11758183_x_at) / RFU CNN1 (11734310_a_at) / Fold change /veh CNN1 (11734310_a_at) / RFU VPS37D (11726825_at) / Fold change /veh VPS37D (11726825_at) / RFU C10orf10 (11716522_x_at) / Fold change /veh C10orf10 (11716522_x_at) / RFU KIR2DL2 /// KIR2DL4 /// KIR2DL5A /// KIR2DL5B /// KIR2DS1 /// KIR2DS2 /// KIR2DS3 /// KIR2DS4 /// KIR3DL3 /// KIR3DL3 /// KIR3DS1 (11738374_at) / Fold change /veh KIR2DL2 /// KIR2DL4 /// KIR2DL5A /// KIR2DL5B /// KIR2DS1 /// KIR2DS2 /// KIR2DS3 /// KIR2DS4 /// KIR3DL3 /// KIR3DL3 /// KIR3DS1 (11738374_at) / RFU C1QL1 (11718748_at) / Fold change /veh C1QL1 (11718748_at) / RFU TMPRSS4 (11747572_a_at) / Fold change /veh TMPRSS4 (11747572_a_at) / RFU HAMP (11756126_x_at) / Fold change /veh HAMP (11756126_x_at) / RFU RNFT2 (11725882_a_at) / Fold change /veh RNFT2 (11725882_a_at) / RFU NR4A2 (11747474_a_at) / Fold change /veh NR4A2 (11747474_a_at) / RFU ABCC12 (11746883_a_at) / Fold change /veh ABCC12 (11746883_a_at) / RFU TMEM136 (11760407_x_at) / Fold change /veh TMEM136 (11760407_x_at) / RFU CLDN22 /// WWC2 (11732394_at) / Fold change /veh CLDN22 /// WWC2 (11732394_at) / RFU HLA-DPB1 (11760878_x_at) / Fold change /veh HLA-DPB1 (11760878_x_at) / RFU SPINT1 (11716480_a_at) / Fold change /veh SPINT1 (11716480_a_at) / RFU GAP43 (11754022_s_at) / Fold change /veh GAP43 (11754022_s_at) / RFU A4GNT (11735810_at) / Fold change /veh A4GNT (11735810_at) / RFU PRB3 (11715151_x_at) / Fold change /veh PRB3 (11715151_x_at) / RFU TUBB4B (11761932_at) / Fold change /veh TUBB4B (11761932_at) / RFU CAPN14 (11732068_a_at) / Fold change /veh CAPN14 (11732068_a_at) / RFU TMCC2 (11721928_a_at) / Fold change /veh TMCC2 (11721928_a_at) / RFU IRGQ (11745062_a_at) / Fold change /veh IRGQ (11745062_a_at) / RFU FAM174B (11720279_a_at) / Fold change /veh FAM174B (11720279_a_at) / RFU TMPRSS4 (11748680_a_at) / Fold change /veh TMPRSS4 (11748680_a_at) / RFU FAM212B (11763350_a_at) / Fold change /veh FAM212B (11763350_a_at) / RFU PLEKHG5 (11743358_a_at) / Fold change /veh PLEKHG5 (11743358_a_at) / RFU ZSCAN30 (11745921_a_at) / Fold change /veh ZSCAN30 (11745921_a_at) / RFU CMKLR1 (11741424_a_at) / Fold change /veh CMKLR1 (11741424_a_at) / RFU LOC101060620 /// MAPK8IP1 (11723275_at) / Fold change /veh LOC101060620 /// MAPK8IP1 (11723275_at) / RFU SPTSSB (11747773_x_at) / Fold change /veh SPTSSB (11747773_x_at) / RFU PRSS12 (11739890_at) / Fold change /veh PRSS12 (11739890_at) / RFU BIN1 (11741810_x_at) / Fold change /veh BIN1 (11741810_x_at) / RFU WNT11 (11732464_a_at) / Fold change /veh WNT11 (11732464_a_at) / RFU C10orf10 (11716521_a_at) / Fold change /veh C10orf10 (11716521_a_at) / RFU C5orf56 (11738089_at) / Fold change /veh C5orf56 (11738089_at) / RFU CYB561 (11721691_x_at) / Fold change /veh CYB561 (11721691_x_at) / RFU ANKRD19P (11752326_a_at) / Fold change /veh ANKRD19P (11752326_a_at) / RFU OR2T12 /// OR2T33 /// OR2T8 (11738714_s_at) / Fold change /veh OR2T12 /// OR2T33 /// OR2T8 (11738714_s_at) / RFU VCAN (11748164_a_at) / Fold change /veh VCAN (11748164_a_at) / RFU JSRP1 (11732532_at) / Fold change /veh JSRP1 (11732532_at) / RFU KRTAP10-11 (11738290_x_at) / Fold change /veh KRTAP10-11 (11738290_x_at) / RFU MYO3A (11730013_a_at) / Fold change /veh MYO3A (11730013_a_at) / RFU EBF3 (11725865_a_at) / Fold change /veh EBF3 (11725865_a_at) / RFU CAMK2N1 (11719241_x_at) / Fold change /veh CAMK2N1 (11719241_x_at) / RFU C5orf56 (11738088_a_at) / Fold change /veh C5orf56 (11738088_a_at) / RFU OLFML3 (11715873_a_at) / Fold change /veh OLFML3 (11715873_a_at) / RFU LOC100653217 /// NTM (11731650_a_at) / Fold change /veh LOC100653217 /// NTM (11731650_a_at) / RFU MAPK11 (11762145_a_at) / Fold change /veh MAPK11 (11762145_a_at) / RFU FIZ1 (11724087_x_at) / Fold change /veh FIZ1 (11724087_x_at) / RFU OASL (11726364_x_at) / Fold change /veh OASL (11726364_x_at) / RFU SOX15 (11748057_x_at) / Fold change /veh SOX15 (11748057_x_at) / RFU CD79A (11719716_a_at) / Fold change /veh CD79A (11719716_a_at) / RFU HIST1H1D (11736915_at) / Fold change /veh HIST1H1D (11736915_at) / RFU CASKIN2 (11723855_a_at) / Fold change /veh CASKIN2 (11723855_a_at) / RFU LOC730098 (11760151_x_at) / Fold change /veh LOC730098 (11760151_x_at) / RFU OR4N2 (11742367_at) / Fold change /veh OR4N2 (11742367_at) / RFU PRRT2 (11749266_a_at) / Fold change /veh PRRT2 (11749266_a_at) / RFU SNX32 (11753110_a_at) / Fold change /veh SNX32 (11753110_a_at) / RFU CDHR5 (11726645_a_at) / Fold change /veh CDHR5 (11726645_a_at) / RFU RCAN1 (11760418_a_at) / Fold change /veh RCAN1 (11760418_a_at) / RFU FAM167A (11723789_a_at) / Fold change /veh FAM167A (11723789_a_at) / RFU FAM26E (11764081_at) / Fold change /veh FAM26E (11764081_at) / RFU ISYNA1 (11749810_s_at) / Fold change /veh ISYNA1 (11749810_s_at) / RFU ACY1 (11761880_at) / Fold change /veh ACY1 (11761880_at) / RFU 11764098_at / Fold change /veh 11764098_at / RFU SAMD14 (11745864_x_at) / Fold change /veh SAMD14 (11745864_x_at) / RFU NPB (11741838_a_at) / Fold change /veh NPB (11741838_a_at) / RFU TMPRSS6 (11731388_a_at) / Fold change /veh TMPRSS6 (11731388_a_at) / RFU KRTAP10-2 (11738614_at) / Fold change /veh KRTAP10-2 (11738614_at) / RFU ARHGAP8 /// PRR5-ARHGAP8 (11727945_x_at) / Fold change /veh ARHGAP8 /// PRR5-ARHGAP8 (11727945_x_at) / RFU KRTAP5-7 /// NADSYN1 (11734609_at) / Fold change /veh KRTAP5-7 /// NADSYN1 (11734609_at) / RFU RASL12 (11751679_a_at) / Fold change /veh RASL12 (11751679_a_at) / RFU CDKN2B (11736163_a_at) / Fold change /veh CDKN2B (11736163_a_at) / RFU PRF1 (11729649_at) / Fold change /veh PRF1 (11729649_at) / RFU, ZNF638 /// ZNF638-IT1 / Fold change vs veh, ZNF638 /// ZNF638-IT1 / RFU, PANK3 / Fold change vs veh, PANK3 / RFU, SH3YL1 / Fold change vs veh, SH3YL1 / RFU, ZEB2 / Fold change vs veh, ZEB2 / RFU, NRIP1 / Fold change vs veh, NRIP1 / RFU, PTTG1IP / Fold change vs veh, PTTG1IP / RFU, CAPN2 / Fold change vs veh, CAPN2 / RFU, MED14 / Fold change vs veh, MED14 / RFU, SNORA58 / Fold change vs veh, SNORA58 / RFU, C1orf63 / Fold change vs veh, C1orf63 / RFU, LRRFIP1 / Fold change vs veh, LRRFIP1 / RFU, NDUFAF7 / Fold change vs veh, NDUFAF7 / RFU, SLC12A2 / Fold change vs veh, SLC12A2 / RFU, IBTK / Fold change vs veh, IBTK / RFU, ESF1 / Fold change vs veh, ESF1 / Fold change vs veh, TMEM50B / RFU, TAOK1 / Fold change vs veh, TAOK1 / RFU, ACBD3 / Fold change vs veh, ACBD3 / RFU, TMA16 / Fold change vs veh, TMA16 / RFU, RWDD3 / Fold change vs veh, RWDD3 / RFU, BCAT1 / Fold change vs veh, BCAT1 / RFU, EDEM3 / Fold change vs veh, EDEM3 / RFU, TMEM33 / Fold change vs veh, TMEM33 / RFU, WDR75 / Fold change vs veh, WDR75 / RFU, AHCTF1 / Fold change vs veh, AHCTF1 / RFU, TFRC / Fold change vs veh, TFRC / RFU, ZDHHC17 / Fold change vs veh, ZDHHC17 / RFU, NOM1 / Fold change vs veh, NOM1 / RFU, ARL8B / Fold change vs veh, ARL8B / RFU, ZBTB11 / Fold change vs veh, ZBTB11 / RFU, TAMM41 / Fold change vs veh, TAMM41 / RFU, KIAA1704 /// LOC100996395 / Fold change vs veh, KIAA1704 /// LOC100996395 / RFU, ING1 / Fold change vs veh, ING1 / RFU, TRMT61B / Fold change vs veh, TRMT61B / RFU, FUBP3 / Fold change vs veh, FUBP3 / RFU, TP53 / Fold change vs veh, TP53 / RFU, TNKS2 / Fold change vs veh, TNKS2 / RFU, ZFP14 / Fold change vs veh, ZFP14 / RFU, ACTR2 / Fold change vs veh, ACTR2 / RFU, PPP3R1 / Fold change vs veh, PPP3R1 / RFU, PIK3R1 / Fold change vs veh, PIK3R1 / RFU, HNRNPA1 / Fold change vs veh, HNRNPA1 / RFU, RNF170 / Fold change vs veh, RNF170 / RFU, ZNF28 / Fold change vs veh, ZNF28 / RFU, RNGTT / Fold change vs veh, RNGTT / RFU, OGT / Fold change vs veh, OGT / RFU, BRD1 / Fold change vs veh, BRD1 / RFU, MARS / Fold change vs veh, MARS / RFU, ZNF655 / Fold change vs veh, ZNF655 / RFU, FAHD1 / Fold change vs veh, FAHD1 / RFU, BDP1 / Fold change vs veh, BDP1 / RFU, LRRCC1 / Fold change vs veh, LRRCC1 / RFU, ARID1A / Fold change vs veh, ARID1A / RFU, ZNF146 / Fold change vs veh, ZNF146 / RFU, ZNF330 / Fold change vs veh, ZNF330 / RFU, GPN3 / Fold change vs veh, GPN3 / RFU, C9orf123 / Fold change vs veh, C9orf123 / RFU, N4BP2L2 / Fold change vs veh, N4BP2L2 / RFU, ARFIP1 / Fold change vs veh, ARFIP1 / RFU, FAM179B / Fold change vs veh, FAM179B / RFU, BCL10 / Fold change vs veh, BCL10 / RFU, UHRF1BP1L / Fold change vs veh, UHRF1BP1L / RFU, BET1 / Fold change vs veh, BET1 / RFU, CNOT2 / Fold change vs veh, CNOT2 / RFU, ZNF268 / Fold change vs veh, ZNF268 / Fold change vs veh, ZNF507 / RFU, DGCR2 / Fold change vs veh, DGCR2 / RFU, WDSUB1 / Fold change vs veh, WDSUB1 / Fold change vs veh, HSP90B1 /// MIR3652 / RFU, ADSS / Fold change vs veh, ADSS / RFU, GK / Fold change vs veh, GK / RFU, ZNF148 / Fold change vs veh, ZNF148 / RFU, TAF9 / Fold change vs veh, TAF9 / RFU, SLC1A5 / Fold change vs veh, SLC1A5 / RFU, SLMO2 / Fold change vs veh, SLMO2 / RFU, ABCC4 / Fold change vs veh, ABCC4 / RFU, LOC101060439 /// RAP1B / Fold change vs veh, LOC101060439 /// RAP1B / RFU, RFX7 / Fold change vs veh, RFX7 / RFU, GTPBP10 / Fold change vs veh, GTPBP10 / RFU, CNEP1R1 / Fold change vs veh, CNEP1R1 / RFU, BIVM-ERCC5 /// ERCC5 / Fold change vs veh, BIVM-ERCC5 /// ERCC5 / RFU, ILF3 / Fold change vs veh, ILF3 / RFU 11762660_at / Fold change /veh 11762660_at / RFU VCAN (11757783_s_at) / Fold change /veh VCAN (11757783_s_at) / RFU DDX43 (11728927_at) / Fold change /veh DDX43 (11728927_at) / RFU KRT8 (11758188_x_at) / Fold change /veh KRT8 (11758188_x_at) / RFU NKD1 (11759106_at) / Fold change /veh NKD1 (11759106_at) / RFU SRD5A1 (11742802_a_at) / Fold change /veh SRD5A1 (11742802_a_at) / RFU TPSAB1 /// TPSB2 (11721975_s_at) / Fold change /veh TPSAB1 /// TPSB2 (11721975_s_at) / RFU GSTM3 (11746129_a_at) / Fold change /veh GSTM3 (11746129_a_at) / RFU IL23R (11737362_x_at) / Fold change /veh IL23R (11737362_x_at) / RFU TMEM51 (11727254_a_at) / Fold change /veh TMEM51 (11727254_a_at) / RFU PIWIL2 (11732686_x_at) / Fold change /veh PIWIL2 (11732686_x_at) / RFU ORM1 (11744905_x_at) / Fold change /veh ORM1 (11744905_x_at) / RFU CCDC152 (11743942_at) / Fold change /veh CCDC152 (11743942_at) / RFU ECM1 (11717891_a_at) / Fold change /veh ECM1 (11717891_a_at) / RFU IL23R (11748794_a_at) / Fold change /veh IL23R (11748794_a_at) / RFU TNFAIP8L3 (11732012_x_at) / Fold change /veh TNFAIP8L3 (11732012_x_at) / RFU MBOAT4 (11741988_at) / Fold change /veh MBOAT4 (11741988_at) / RFU 11764193_at / Fold change /veh 11764193_at / RFU TMEM53 (11763286_at) / Fold change /veh TMEM53 (11763286_at) / RFU MAGEB2 (11727129_at) / Fold change /veh MAGEB2 (11727129_at) / RFU TMEM200A (11744735_a_at) / Fold change /veh TMEM200A (11744735_a_at) / RFU CCDC152 (11751479_a_at) / Fold change /veh CCDC152 (11751479_a_at) / RFU FAM211A (11726209_a_at) / Fold change /veh FAM211A (11726209_a_at) / RFU RGS16 (11746705_a_at) / Fold change /veh RGS16 (11746705_a_at) / RFU VCAN (11755009_s_at) / Fold change /veh VCAN (11755009_s_at) / RFU RHOB (11743442_s_at) / Fold change /veh RHOB (11743442_s_at) / RFU RGS16 (11720943_a_at) / Fold change /veh RGS16 (11720943_a_at) / RFU RGS16 (11720944_at) / Fold change /veh RGS16 (11720944_at) / RFU, VPS4B / Fold change vs veh, VPS4B / RFU, CREB1 / Fold change vs veh, CREB1 / RFU, DNAJC13 / Fold change vs veh, DNAJC13 / RFU, GNAQ / Fold change vs veh, GNAQ / RFU, CDK5R1 / Fold change vs veh, CDK5R1 / RFU, ZRANB3 / Fold change vs veh, ZRANB3 / RFU, CUL4A / Fold change vs veh, CUL4A / RFU, CCNY / Fold change vs veh, CCNY / RFU, UFL1 / Fold change vs veh, UFL1 / RFU, COG3 / Fold change vs veh, COG3 / RFU, DIAPH2 / Fold change vs veh, DIAPH2 / RFU, SKA2 / Fold change vs veh, SKA2 / RFU, AFF3 / Fold change vs veh, AFF3 / RFU, LMF1 / Fold change vs veh, LMF1 / RFU, IPO11 / Fold change vs veh, IPO11 / RFU, DFFB / Fold change vs veh, DFFB / RFU, FOXP1 / Fold change vs veh, FOXP1 / RFU, CARD8 / Fold change vs veh, CARD8 / RFU, STRN3 / Fold change vs veh, STRN3 / RFU, ADK / Fold change vs veh, ADK / RFU, RASSF2 / Fold change vs veh, RASSF2 / RFU, WIPF1 / Fold change vs veh, WIPF1 / RFU, LARP1B / Fold change vs veh, LARP1B / RFU, RASA1 / Fold change vs veh, RASA1 / RFU, RB1 / Fold change vs veh, RB1 / RFU, PPFIA1 / Fold change vs veh, PPFIA1 / RFU, MAT2A / Fold change vs veh, MAT2A / RFU, CCT5 / Fold change vs veh, CCT5 / RFU, WDR92 / Fold change vs veh, WDR92 / RFU, CUX1 / Fold change vs veh, CUX1 / RFU, TTC7A / Fold change vs veh, TTC7A / RFU, TMEM135 / Fold change vs veh, TMEM135 / RFU, DEPTOR / Fold change vs veh, DEPTOR / RFU, CPM / Fold change vs veh, CPM / RFU, DNAJB6 / Fold change vs veh, DNAJB6 / RFU, CACNA2D3 / Fold change vs veh, CACNA2D3 / RFU, DTX4 / Fold change vs veh, DTX4 / RFU, TFCP2 / Fold change vs veh, TFCP2 / RFU, GMCL1 /// GMCL1P1 / Fold change vs veh, GMCL1 /// GMCL1P1 / RFU, AEBP2 / Fold change vs veh, AEBP2 / RFU, SNHG1 /// SNORD22 /// SNORD25 /// SNORD26 /// SNORD27 /// SNORD28 /// SNORD29 /// SNORD31 / Fold change vs veh, SNHG1 /// SNORD22 /// SNORD25 /// SNORD26 /// SNORD27 /// SNORD28 /// SNORD29 /// SNORD31 / Fold change (Aza/veh), C12orf56 (ProbeSet 11735607_a_at) / Fold change (ACY-1035/veh), C12orf56 (ProbeSet 11735607_a_at) / Fold change (Aza/veh), FGFR1OP (ProbeSet 11751329_s_at) / Fold change (ACY-1035/veh), FGFR1OP (ProbeSet 11751329_s_at) / Fold change (Aza/veh), VPS36 (ProbeSet 11739960_a_at) / Fold change (ACY-1035/veh), VPS36 (ProbeSet 11739960_a_at) / RFU SYPL1 (11715823_x_at) / Fold change /veh SYPL1 (11715823_x_at) / RFU IGFBP7 (11715501_s_at) / Fold change /veh IGFBP7 (11715501_s_at) / RFU REEP3 (11722064_at) / Fold change /veh REEP3 (11722064_at) / RFU IGLL1 (11728026_x_at) / Fold change /veh IGLL1 (11728026_x_at): dose or concentration left out as unconfirmed
Conditions: MV-4-11 cells, 48 hours

## Nc1ccc(-c2cccs2)cc1NC(=O)c1ccc2c(c1)cc(C1CC1)n2CCN1CCOCC1 [ACY-1035]
  Fold change /veh HAMP (11756126_x_at): 0.97
